# Source: patent publication EP0126813A1, “Process for preparing imidazole compounds” (Newport Pharmaceuticals International, Inc., priority 1983, dated 1984)
# Columns and labels:
# [1] = tested on: Lymphocyte; assay: Con A induced lymphocyte proliferation (mitogen induced lymphocyte proliferation); format: cell-based; details: for X̄ cpm: control 35,059 cpm
# Excerpt: In Table 1 the effect of NPT 15459 on con A Induced Proliferation is described. The procedure is described in Simon U.S. patent 4,221,909, column 24, line 12 to column 25, line 10.
# [2] = tested on: Lymphocyte; assay: LPS induced lymphocyte proliferation (mitogen induced lymphocyte proliferation); format: cell-based; details: for X̄ cpm: control 7044 cpm
# Excerpt: In Table 1 the effect of NPT 15459 on LPS Induced Proliferation is described.
# [3] = tested on: SRBC Induced Antibody Formation; assay: SRBC induced antibody formation; format: in vivo; details: for X̄ PFC/10^6 Cells: saline control 53
# Excerpt: In Table 2 the SRBC Induced Antibody Formation procedure employed was that shown in Simon EPO application 0036077 page 46.
# [4] = Solubility (summary of chemical properties); format: physicochemical
# [5] = Lymphocyte, 5.0 µg/ml, read-out: Percent Change from Control
# [6] = Lymphocyte, 10.0 µg/ml, read-out: Percent Change from Control
structure (smiles),measurement,setting,value
"CCCCCC[C@H]([C@H](C)O)n1cnc(C(N)=O)c1N (relative stereo) [NPT 15459, erythro-3-(2-hydroxy-3-nonyl)-4-amino-imidazole-5-carboxamide]",X̄ cpm,[1]; 5.0 µg/ml,"20,095 cpm"
same,X̄ cpm,[1]; 10.0 µg/ml,"12,736 cpm"
same,X̄ cpm,[1]; .020 µg/ml,"35,747 cpm"
same,X̄ cpm,[1]; .500 µg/ml,"30,920 cpm"
same,inhibition at 5 µg/mL,[1]; [5],43%
same,inhibition at 10 µg/mL,[1]; [6],65%
same,inhibition at 0.02 µg/mL,"[1]; Lymphocyte, .020 µg/ml, read-out: Percent Change from Control",-2%
same,inhibition at 0.5 µg/mL,"[1]; Lymphocyte, .500 µg/ml, read-out: Percent Change from Control",12%
same,X̄ cpm,[2]; 5.0 µg/ml,4128 cpm
same,X̄ cpm,[2]; 10.0 µg/ml,2449 cpm
same,X̄ cpm,[2]; .02 µg/ml,6184 cpm
same,X̄ cpm,[2]; .5 µg/ml,6676 cpm
same,inhibition at 5 µg/mL,[2]; [5],42%
same,inhibition at 10 µg/mL,[2]; [6],66%
same,inhibition at 0.02 µg/mL,"[2]; Lymphocyte, .02 µg/ml, read-out: Percent Change from Control",12%
same,inhibition at 0.5 µg/mL,"[2]; Lymphocyte, .5 µg/ml, read-out: Percent Change from Control",6%
same,Percent Change from Control,[3]; 5.0 mg/kg,+24%
same,X̄ PFC/10^6 Cells,[3]; 5.0 mg/kg,66 PFC/10^6 Cells
same,Percent Change from Control,[3]; .05 mg/kg,+196%
same,X̄ PFC/10^6 Cells,[3]; .05 mg/kg,157 PFC/10^6 Cells
same,Percent Change from Control,[3]; .5 mg/kg,+126%
same,X̄ PFC/10^6 Cells,[3]; .5 mg/kg,120 PFC/10^6 Cells
same,Solubility,"[4]; HCl (Aq), acetic acid, methanol, ethanol",very soluble
same,Solubility,"[4]; benzene, water",insoluble
same,Solubility,[4]; isopropanol,soluble
